What all share (type): cell-based
In test [1] the test system is HL-60 cells. Briefly: N-acetyl cysteine cytotoxicity assay. How it is done: For assays involving cytotoxicity of β-lapachone derivatives with and without antioxidant N—-acetyl cysteine, HL-60 cells were plated into 24 well plates at a concentration of 2.5×10^5 cells/mL in 450 μL. To each well was then added 25 μL of drug diluted in PBS to obtain the correct in-plate drug concentration, and 25 μL of PBS or a stock of N-acetyl cysteine at 12 mM in PBS. DMSO was maintained at an in-plate concentration of 0.1%. After 96 h incubation, toxicity was assessed by counting of live cells using the Trypan Blue exclusion method with a Countess II Automated Cell Counter (ThermoFisher Scientific) according to the manufacturer's instructions. Cell viability was determined by division of average live cell number of treated wells by average live cell number for control wells treated with 0.1% DMSO. […] Values recorded are the mean of three repeat wells, with error bars representing the standard error of the mean for each concentration tested.

In test [2] the test system is MOLM-13. Description: Viability assay with small molecule prodrugs, Trypan Blue exclusion, MOLM-13. To be noted: 5 μM, 24 h timepoint. How it is done:
For assays assessing cytotoxicity of β-lapachone versus small molecule dipeptide prodrugs, suspension cells were plated into 24 well plates at a density of 2.5×10^5 cells/mL in 240 μL. Serial dilutions of compound were made up in PBS. 60 μL of each stock of either PBS, or compound in PBS was added to the cells to achieve the desired final concentration. After the specified incubation time, toxicity was assessed by counting of live cells using the Trypan Blue exclusion method with a Countess II Automated Cell Counter (ThermoFisher Scientific) according to the manufacturer's instructions. Cell viability was determined by division of average live cell number of treated wells by average live cell number for control wells treated with PBS only. Values recorded are the mean of three repeat wells, with error bars representing the standard error of the mean for each concentration tested. IC50 values were calculated using GraphPad Prism software.

Test [3] deals with HL-60 (leukaemia cell line). Briefly: Viability assay (CellTiter-Blue), HL-60. Particulars: Homo sapiens. How it is done: (§1) Assays assessing cytotoxicity of β-lapachone and derivatives were performed by CellTiter-Blue assay (Promega) according to the manufacturer's instructions. Briefly, adherent cancer-cell lines were plated at 20,000 cells/well in 96 well plates or suspension cell lines were plated at a concentration of 2×10^5 cells/mL in 24 well plates. Compound stocks in media were made by dilution of DMSO stocks containing the compound of interest to obtain a final in-plate DMSO concentration of only 0.1%. Incubation was performed for 48 h. Following incubation, media was replaced with media containing CellTiter-Blue (Promega) in 1:10 dilution and the plates were incubated for 1.5-4 h. The fluorescence of the plates was recorded (excitation 555 nm, emission 585 nm, […] Reader, Molecular Devices). Cell viability was calculated by division of the fluorescence intensity of treated wells by that of the calculated average fluorescence intensity of replicate negative control wells containing cells with 0.1% DMSO only. Values and reported error bars represent the mean and standard error of the mean of three triplicate repeats for each concentration tested.
On the technique in general: The colour change of resazurin is a common sign of viable cells or microbes.

In test [4] the test system is MCF-7 (breast cancer cell line). Description: Viability assay (CellTiter-Blue), MCF-7. Particulars: Homo sapiens, MCF7.
The test system of test [5] is range of cancer cell lines, including leukaemia, breast, colon, and cervical cancer. Description: Toxicity to a range of cancer cell lines (panel). Particulars: panel of cells. How it is done: as §1
The subject of test [6] is range of cell lines. Briefly: Toxicity of Gluc-PHB-BL against a range of cell lines with and without added β-glucuronidase. To be noted: control tests. Here is the method:
(§2) Assays assessing cytotoxicity of β-lapachone and derivatives were performed by CellTiter-Blue assay (Promega) according to the manufacturer's instructions. Briefly, adherent cancer-cell lines were plated at 20,000 cells/well in 96 well plates or suspension cell lines were plated at a concentration of 2×10^5 cells/mL in 24 well plates. Compound stocks in media were made by dilution of DMSO stocks containing the compound of interest to obtain a final in-plate DMSO concentration of only 0.1%. Incubation was performed for 48 h. Following incubation, media was replaced with media containing CellTiter-Blue (Promega) in 1:10 dilution and the plates were incubated for 1.5-4 h. The fluorescence of the plates was recorded (excitation 555 nm, emission 585 nm, MiniMax i3x Reader, Molecular Devices).
(§3) Cell viability was calculated by division of the fluorescence intensity of treated wells by that of the calculated average fluorescence intensity of replicate negative control wells containing cells with 0.1% DMSO only. Values and reported error bars represent the mean and standard error of the mean of three triplicate repeats for each concentration tested. IC50 values were calculated using GraphPad Prism 8 software.
(§4) The potential of compound 37a, glucuronide-PHB-BL, as a prodrug was investigated. As discussed above, at physiological pH the compound has a relatively slow-release rate. Toxicity of Gluc-PHB-BL 37a was tested against a range of cell lines with and without added β-glucuronidase. Addition of the enzyme mimics conditions of the solid tumour environment.

Test [7] has as its system SkBr-3. Description: Toxicity with/without β-glucuronidase, SkBr-3. Particulars: Homo sapiens, SK-BR-3; SkBr-3; read-out: IC50 β-lapachone, 1. How it is done:
as §2, §3, §4

Test [8] deals with HL-60. Description: Toxicity with/without β-glucuronidase, HL-60. Particulars: Homo sapiens, HL-60; read-out: IC50 β-lapachone, 1. Here is the method: as §2, §3, §4
Test [9] has as its system MOLM-13. Description: Toxicity with/without β-glucuronidase, MOLM-13. To be noted: Homo sapiens, MOLM-13; read-out: IC50 β-lapachone, 1. How it is done:
as §2, §3, §4

Test [10] deals with Aspc-1 pancreatic cancer cell line. Description: CellTiter Glo viability assay, Aspc-1. To be noted: Homo sapiens, ASPC1; Aspc-1, β-lapachone alone, 48 hours; read-out: IC50. Here is the method: For CellTiter Glo viability assays, 10,000 cells per well were plated on Day 1 and were allowed to adhere to the plate surface for 24 hours. Optimized concentration ranges of prodrugs were determined and made via serial dilution. […] Cells were incubated with compound for 48 hours and viability was assessed on Day 4 using the CellTiter Glo Viability assay which measures metabolically active cells by quantifying the amount of ATP present.
Panc-1 cells were obtained from Tony Kouzarides' lab in the Gurdon Institute at the University of Cambridge and put into culture at passage 10 containing DMEM media (Gibco) supplemented with 1% Pen-Strep antibiotic (Gibco), 1% L-glutamine, and 10% fetal bovine serum (FBS, sterile-filtered). Aspc-1 cells were bought commercially from the American Type Culture Collection (ATCC) and put into culture containing RPMI 1640 media (Gibco) supplemented with 1% Pen-Strep antibiotic (Gibco), 1% L-glutamine, and 20% fetal bovine serum (FBS, sterile-filtered). All cell lines were started at passage 10 and passaged every 3 days by centrifuging at 1000 rpm for 4 minutes.
For orientation: In ATP-based viability assays light output follows the ATP content of the culture.

The structures appear in SMILES notation.

This is an account of results in patent US20250170252A1, “QUINONE PROTECTED FORMS AND CONJUGATES” (CAMBRIDGE ENTERPRISE LIMITED, priority 2022, published 2025).

One may read the IC50 as the midpoint of a concentration-inhibition curve.

As to `CC1(C)CCC2=C(O1)c1ccccc1C(=O)C2=O` [Compound 1, β-lapachone, reference compound], the “change of IC50 upon NAC addition” value in test [1] (HL-60) is given as “more than doubled”. Further, the IC50 in test [1] (Homo sapiens, HL-60, HL-60, without NAC) was 0.47 ± 0.26 µM; in test [3], 1.4 µM; in [4] it was 1.9 µM; in test [5] it was 1.1 to 4.2 µM; in [7], 2.75 µM; in test [8], 4.33 µM. Further, the IC50 in test [9] came out at 12.1 µM; in test [10], 7.66 µM. Also, the “toxicity to MOLM-13” value in test [2] is on record as “complete cell death”. For the same molecule, the “effect of β-glucuronidase addition on toxicity” value in [6] is “not significantly affected”.
